Columns and labels:
[1] = system: Puccinia recondita f. Sp. Tritici; assay: Puccinia recondita f. sp. tritici / wheat / leaf disc preventative (brown rust); assay type: in vivo, Puccinia recondita f. sp. tritici on wheat cv. Kanzler; conditions: foliar, 200 ppm in the applied formulation, inoculated 1 day after application, assessed 7 to 9 days after application, vs untreated control leaf disks, read-out: disease control
Procedure, shortened: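 Wheat cv. Kanzler leaf segments on agar were sprayed with compound (DMSO stock diluted with 0.025% Tween20) 1 day before inoculation with spores. Segments were held at 19 °C, 75% rh, 12 h light/dark. Percent disease control versus untreated was scored 7–9 days after application.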

Phakopsora pachyrhizi = Phakopsora pachyrhizi / soybean / leaf disc preventative (Asian soybean rust); assay type: in vivo, Phakopsora pachyrhizi on soybean; conditions: foliar, 200 ppm in the applied formulation, inoculated one day after application, assessed 12 to 14 days after application, vs untreated control leaf disks, read-out: disease control
Procedure, shortened: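 Read-out is percent disease control relative to untreated check discs, assessed once untreated discs show adequate disease, 12 to 14 days after application. Compounds, tested at 200 ppm in the applied formulation, are sprayed onto soybean leaf discs one day before inoculation with a spore suspension.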

[2] = system: Glomerella Lacenarium (Colletotrichum lacenarium); assay: Glomerella lagenarium (Colletotrichum lagenarium) liquid culture / cucumber / preventative (anthracnose); assay type: cell-based; conditions: 20 ppm in the applied formulation, liquid culture in PDB, 24° C., inhibition of growth measured photometrically 3 to 4 days after application, vs untreated control, read-out: disease control
Procedure, shortened: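 Conidia from cryogenic storage were mixed into potato dextrose broth and added to DMSO solutions of test compound in microtiter plates. Plates were incubated at 24° C. and growth inhibition read photometrically 3 to 4 days after application, as percent antifungal activity versus untreated check.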

[3] = system: Puccinia recondita f. Sp. Triticil; assay: Puccinia recondita f. sp. tritici / wheat / leaf disc curative (brown rust); assay type: in vivo, Puccinia recondita f. sp. tritici on wheat cv. Kanzler; conditions: foliar, 200 ppm in the applied formulation, applied 1 day after inoculation, assessed 6 to 8 days after application, vs untreated control leaf disks, read-out: disease control
Procedure, shortened: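 Wheat cv. Kanzler leaf segments on agar were inoculated with fungal spore suspension, held dark at 19° C and 75% RH, then sprayed 1 day later with formulated compound diluted in water. Incubation continued at 19° C, 75% RH, 12 h light/12 h dark; percent disease control versus untreated was scored 6 to 8 days after application.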

Uromyces viciae-Fabael = assay: Uromyces viciae-fabae / field bean / leaf disc preventative (faba-bean rust); assay type: in vivo, Uromyces viciae-fabae on field bean; conditions: foliar, 288 h, 100 ppm in the applied formulation, inoculated two hours after application, assessed 12 days after application, vs untreated control leaf discs, read-out: disease control
Method: Leaf disks or leaf segments of various plant species are cut from plants grown in a greenhouse. The cut leaf disks or segments are placed in multiwell plates (24-well format) onto water agar. The leaf disks are sprayed with a test solution before (preventative) or after (curative) inoculation. Compounds to be tested are prepared as DMSO solutions (max. 10 mg/ml) which are diluted to the appropriate concentration with 0.025% Tween20 just before spraying. The inoculated leaf disks or segments are incubated under defined conditions (temperature, relative humidity, light, etc.) according to the respective test system. A single evaluation of disease level is carried out 3 to 14 days after inoculation, depending on the pathosystem. Percent disease control relative to the untreated check leaf disks or segments is then calculated.
Field bean leaf discs are placed on water agar in multiwell plates (96-well format) and 10 μl of the formulated test compound diluted in acetone and a spreader pipetted onto the leaf disc. Two hours after application leaf discs are inoculated by spraying a spore suspension on the lower leaf surface. The leaf discs are incubated in a climate cabinet at 22° C. with 18 hour day and 70% relative humidity. The activity of a compound is assessed as percent disease control compared to untreated when an appropriate level of disease damage appears in untreated check leaf disks (12 days after application).
The following compounds at 100 ppm in the applied formulation give at least 80% disease control in this test when compared to untreated control leaf discs under the same conditions, which show extensive disease development.

| Structure (SMILES) | pest or weed control at 200 ppm [1] [%] | melting point [°C] | pest or weed control at 200 ppm (Phakopsora pachyrhizi) [%] | inhibition of growth at 20 ppm [2] [%] | pest or weed control at 200 ppm [3] [%] | pest or weed control at 100 ppm (Uromyces viciae-Fabael) [%] |
| --- | --- | --- | --- | --- | --- | --- |
| O=C(NCc1ccc(-c2noc(C(F)(F)F)n2)c(F)c1F)c1ccccc1Cl [Compound 1.56, 2-chloro-N-[[2,3-difluoro-4-[5-(trifluoromethyl)-1,2,4-oxadiazol-3-yl]phenyl]methyl] benzamide] | ≥ 80 | 144 to 150 | ≥ 80 | ≥ 80 |  |  |
| O=C(NCc1ccc(-c2noc(C(F)(F)F)n2)c(F)c1)c1ccccc1Cl [Compound 1.58, 2-chloro-N-[[3-fluoro-4-[5-(trifluoromethyl)-1,2,4-oxadiazol-3-yl]phenyl]methyl] benzamide] | ≥ 80 | 146 to 148 | ≥ 80 | ≥ 80 |  |  |
| CC1=NOC(C(=O)NCc2ccc(-c3noc(C(F)(F)F)n3)c(F)c2)C1 (stereo not drawn) [Compound 1.60, N-[[3-fluoro-4-[5-(trifluoromethyl)-1,2,4-oxadiazol-3-yl]phenyl]methyl]-3-methyl-4,5-dihydroisoxazole-5-carboxamide] | ≥ 80 | 134 to 138 | ≥ 80 | ≥ 80 | ≥ 80 |  |
| O=C(NCc1ccc(-c2noc(C(F)(F)F)n2)c(F)c1)C1CCCO1 (stereo not drawn) [Compound 1.59, N-[[3-fluoro-4-[5-(trifluoromethyl)-1,2,4-oxadiazol-3-yl]phenyl]methyl] tetrahydrofuran-2-carboxamide] | ≥ 80 | 56 to 58 | ≥ 80 | ≥ 80 | ≥ 80 |  |
| O=C(NCc1ccc(-c2noc(C(F)(F)F)n2)c(F)c1)C1CC1 [Compound 1.57, N-[[3-fluoro-4-[5-(trifluoromethyl)-1,2,4-oxadiazol-3-yl]phenyl]methyl] cyclopropanecarboxamide] | ≥ 80 | 139 to 140 | ≥ 80 | ≥ 80 | ≥ 80 |  |
| O=C(NCc1ccc(-c2noc(C(F)(F)F)n2)c(F)c1F)C1CC1 [Compound 1.55, N-[[2,3-difluoro-4-[5-(trifluoromethyl)-1,2,4-oxadiazol-3-yl]phenyl]methyl] cyclopropanecarboxamide] | ≥ 80 | 144 to 150 | ≥ 80 | ≥ 80 | ≥ 80 |  |
| O=C(NCCc1ccc(-c2noc(C(F)(F)F)n2)cc1)C1CC1 [Compound 1.96, N-[2-[4-[5-(trifluoromethyl)-1,2,4-oxadiazol-3-yl]phenyl]ethyl] cyclopropanecarboxamide] | ≥ 80 | 150 to 151.1 | ≥ 80 | ≥ 80 | ≥ 80 |  |
| Cc1occc1C(=O)NCc1ccc(-c2noc(C(F)(F)F)n2)cc1 [Compound 1.4, 2-methyl-N-[[4-[5-(trifluoromethyl)-1,2,4-oxadiazol-3-yl]phenyl]methyl]furan-3-carboxamide] | ≥ 80 | 102 to 112 | ≥ 80 | ≥ 80 | ≥ 80 | ≥ 80 |
| O=C(NCCc1ccc(-c2noc(C(F)(F)F)n2)cc1)C1CCCO1 (stereo not drawn) [Compound 1.97, N-[2-[4-[5-(trifluoromethyl)-1,2,4-oxadiazol-3-yl]phenyl]ethyl] tetrahydrofuran-2-carboxamide] | ≥ 80 | 68.7 to 70.5 | ≥ 80 | ≥ 80 | ≥ 80 |  |
| O=C(NCc1ccc(-c2noc(C(F)(F)F)n2)cc1)C1(F)CC1 [Compound 1.2, 1-fluoro-N-[[4-[5-(trifluoromethyl)-1,2,4-oxadiazol-3-yl]phenyl]methyl] cyclopropanecarboxamide] | ≥ 80 | 101 to 108 | ≥ 80 | ≥ 80 | ≥ 80 | ≥ 80 |
| O=C(NCc1ccc(-c2noc(C(F)(F)F)n2)c(F)c1F)C1CCCO1 (stereo not drawn) [Compound 1.80, N-[[2,3-difluoro-4-[5-(trifluoromethyl)-1,2,4-oxadiazol-3-yl]phenyl]methyl] tetrahydrofuran-2-carboxamide] | ≥ 80 | 80 to 86 | ≥ 80 | ≥ 80 | ≥ 80 |  |
| O=C(NCc1ccc(-c2noc(C(F)(F)F)n2)cc1)C1CCCO1 (stereo not drawn) [Compound 1.5, N-[[4-[5-(trifluoromethyl)-1,2,4-oxadiazol-3-yl]phenyl]methyl] tetrahydrofuran-2-carboxamide] | ≥ 80 | 76 to 83 | ≥ 80 | ≥ 80 | ≥ 80 | ≥ 80 |
| O=C(NCc1ccc(-c2noc(C(F)(F)F)n2)cc1)c1ccccc1Cl [Compound 1.3, 2-chloro-N-[[4-[5-(trifluoromethyl)-1,2,4-oxadiazol-3-yl]phenyl]methyl]benzamide] | ≥ 80 | 136 to 142 | ≥ 80 | ≥ 80 |  | ≥ 80 |
| O=C(NCc1ccc(-c2noc(C(F)(F)F)n2)cc1)C1CC1 [Compound 1.1, N-[[4-[5-(trifluoromethyl)-1,2,4-oxadiazol-3-yl]phenyl]methyl] cyclopropanecarboxamide] | ≥ 80 | 183 to 190 | ≥ 80 | ≥ 80 | ≥ 80 | ≥ 80 |

From patent US20180368410A1, “MICROBIOCIDAL OXADIAZOLE DERIVATIVES” (SYNGENTA PARTICIPATIONS AG, priority 2015, published 2018)
